Consider 14 molecules from publication PMC9607599, “Dual Targeting Ligands—Histamine H3 Receptor Ligands with Monoamine Oxidase B Inhibitory Activity—In Vitro and In Vivo Evaluation” (Pharmaceutics, 2022).

Several values for one entry are separate records, joined by “and”; a condition that tells them apart may be missing. Equal values may be shown once. Where a name gives a salt, the structure may show the parent alone. Read-outs that look alike come from different tables or passages of the source.

Data set [1] has as its target T1, human MAO B (hMAO B) (Homo sapiens, UniProt P27338).
T1 sequence (P27338 1-520): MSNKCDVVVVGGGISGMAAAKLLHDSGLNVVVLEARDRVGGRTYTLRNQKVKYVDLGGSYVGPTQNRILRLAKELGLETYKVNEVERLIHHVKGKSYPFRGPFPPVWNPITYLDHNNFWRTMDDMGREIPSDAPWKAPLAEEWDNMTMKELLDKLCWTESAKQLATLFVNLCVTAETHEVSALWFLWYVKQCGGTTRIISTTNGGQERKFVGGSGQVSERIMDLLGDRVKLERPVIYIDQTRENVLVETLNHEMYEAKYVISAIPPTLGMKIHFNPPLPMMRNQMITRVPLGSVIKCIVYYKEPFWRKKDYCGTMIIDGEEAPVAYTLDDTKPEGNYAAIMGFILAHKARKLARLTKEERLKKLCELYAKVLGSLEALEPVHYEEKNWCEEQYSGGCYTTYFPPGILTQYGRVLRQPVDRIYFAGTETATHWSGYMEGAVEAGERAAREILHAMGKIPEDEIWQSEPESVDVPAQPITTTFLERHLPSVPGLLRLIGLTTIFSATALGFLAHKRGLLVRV
Nature of the data set: fluorometric MAO assay (p-tyramine substrate). It is filed as biochemical. To be noted: for inhibition at 1 µM: mean of two independent experiments, read-out: hMAO B % of Inh.; for IC50: fluorometric MAO assay, mean ± SEM of 2–4 independent experiments. Here is the method: The precise method was described in [6]. First, compounds 4–32 were screened for hMAO B inhibitory activity at 1 μM concentration by the fluorometric method. Para-tyramine (200 μM) was used as a substrate for the enzyme and safinamide (1 μM) was used as a reference compound. […] Each experiment was performed in duplicate.
All compounds were first screened for hMAO B inhibitory activity at the concentration of 1 μM. […] Based on the results, we selected compounds 9 and 13 for further analysis.

Data set [2] addresses T2, human histamine H3 receptor (hH3R) (Homo sapiens, UniProt Q9Y5N1). Nature of the data set: [3H]Nα-methylhistamine radioligand binding assay in HEK293 cells stably expressing hH3R. To be noted: mean within 95% CI of three independent experiments. On the set-up: expressed in transfected cells. Here is the method: (§1) Affinity to hH3R stably expressed in CHO-K1 [6] or HEK293 [11] cells was evaluated in a radioligand binding assay as described previously. Briefly, 10 mM stock solutions of the test compounds in DMSO were prepared. Each compound was tested at eight concentrations ranging from 10^−5 to 10^−12 M (final concentration). All assays were carried out in duplicate. […] The radioactivity was counted in MicroBeta 2 [6] or MicroBeta Trilux counter (PerkinElmer). Data were fitted to a one-site curve-fitting equation with Prism 6 (GraphPad Software, San Diego, CA, USA) and Ki values were calculated from IC50 values (from at least three experiments performed in duplicates) according to the Cheng−Prusoff equation [12].
(§2) Affinity for hH3R was evaluated in a radioligand binding assay using [^3H]N^α-methylhistamine as radioligand in CHO K1 or HEK293 cells stably expressing hH3R as described previously. […] Then, those with at least 50% inhibition for hH3R were selected for further testing (Ki evaluation). […] Compounds were tested in the binding assay in HEK293 cells.

The target of data set [3] is T2, human histamine H3 receptor (hH3R). Further details: expressed in transfected cells. As to conditions: HEK293 cells; read-out: hH3R Ki [nM] [95%CI]; cited from earlier work.
Data set [4] in a line: parallel artificial membrane permeability assay (PAMPA). The format is in vitro ADME. To be noted: for Pe (×10^−6cm/s) ± SD: PAMPA, triplicate, breakpoint for permeable compounds Pe ≥ 1.5×10^−6 cm/s.
The test system of data set [5] is hMAO B. To be noted: cited from earlier work.
Data set [6] addresses hH3R. To be noted: cited from earlier work.
Data set [7] concerns the target T3, MAO B (Homo sapiens, UniProt P27338).
T3 sequence (P27338 1-520): T1 sequence (P27338 1-520)
Nature of the data set: reversibility of MAO B inhibition (reactivation by excess p-tyramine, with/without preincubation). The format is biochemical. As to conditions: inhibitor at IC80; for reversibility of MAO B inhibition: excess p-tyramine 200 µM. Here is the method: The reversibility of the MAO inhibition was tested as described in [6, 7]. […] Two variants of experiment were performed. […] After 22 min, the concentration of the substrate was increased to 200 µM and the signal was measured for 5 h.

Data set [8] addresses T1, human MAO B (hMAO B). Nature of the data set: modality of hMAO B inhibition (Michaelis-Menten / Lineweaver-Burk). To be noted: for Lines on LB plot: Lineweaver–Burk double-reciprocal plot; for app. KM / app. Vmax / app. Vmax/app. KM: inhibitor at IC20, IC50, IC80, p-tyramine 0.05–2.0 mM. The format is biochemical. Here is the method: Modality of hMAO B inhibition was evaluated for compounds 9 and 13 and the reference safinamide according to the method described previously. Three concentrations of inhibitors, corresponding to their IC20, IC50 and IC80 values, were used. Each experiment was performed in triplicate. KM and Vmax values were calculated from Michaelis–Menten curves by nonlinear regression from the substrate. Lineweaver–Burk plots were calculated using linear regression in GraphPad Prism 6.07 (GraphPad Software, San Diego, CA, USA).
For testing modality of enzyme inhibition, we used three concentrations of inhibitors that corresponded to their IC20, IC50 and IC80 values. Substrate (p-tyramine) was used at concentrations: 0.05, 0.1, 0.5, 1.0, 1.5 and 2.0 mM.

For data set [9], the system named is astrocyte cell line isolated from human cerebral cortex. Briefly: MTT cell viability test on human astrocytes. It is filed as cell-based. As to conditions: Astrocyte, human astrocytes, MTT. The procedure: (§3) The studies were performed on a commercially-available astrocyte cell line isolated from human cerebral cortex (ScienCell Research Laboratories, San Diego, CA, USA; Cat no. 1800). The cells (passage 7–8) were seeded into a 96-well plate at an amount of 10,000 cells/well and kept in accordance with the ScienCell Research Laboratories’ protocol, i.e., in astrocyte medium supplemented with 2% fetal bovine serum, 10% astrocyte growth supplement and 1% penicillin/streptomycin solution, in an atmosphere with 5% CO2 at 37 °C. The cells were allowed to grow for 24 h and then treated with increasing concentrations of test compounds (0.01–0.25 mg/mL) for 24 and 72 h. Astrocytes in the medium on each plate (regardless of the factors tested) were used as a positive control.
(§4) The viability of the astrocyte cell line was determined calorimetrically using 3-(4,5-dimethylthazol-2-yl)-2,5-diphenyltetrazolium bromide (MTT; Sigma-Aldrich Chemical Co. Ltd., Saint Louis, MO, USA) as described earlier. […] After the incubation time (24 or 72 h) with examined drugs, 50 μL MTT solution (1 mg/mL) was added to each well of the plate for another 4 h. The method is based on the reduction of a yellow tetrazolium salt (MTT) into purple formazan crystals by mitochondrial succinate-tetrazolium reductase system which is metabolically active in viable cells. At the end of the experiment, the cells were treated with 100 μL dimethyl sulphoxide, which enabled the release of the reaction product.
(§5) The absorbance was measured at 570 nm using a BioTek EL×800 microplate reader (BioTek, Winooski, Vermont, USA) and results were expressed as a percentage of the absorbance measured in control cells. The obtained values were plotted against different concentrations of each compound to calculate the viability inhibition concentration at 50% (IC50) using GraphPad Prism 6.07 (GraphPad Software, Inc., San Diego, CA, USA). The experiment was repeated in quadruplicate.
(§6) For the cytotoxicity assessment in the MTT assays, each test drug was used at 8 concentrations (range: 0.01–0.25 mg/mL).

Data set [10] in a line: MTT cell viability test on human astrocytes. The format is cell-based. As to conditions: human; 24 h; at 0.15 and 0.25 mg/mL; read-out: decline in cell viability in comparison to the control level. The procedure: as §3, §4, §5, §6
The target of data set [11] is T2, human histamine H3 receptor (hH3R). Briefly: [3H]Nα-methylhistamine radioligand binding assay in CHO-K1 cells stably expressing hH3R. On the set-up: expressed in transfected cells; host or cells: CHO-K1. As to conditions: CHO-K1 cells; [3H]Nα-methylhistamine; mean ± SEM of three independent experiments; read-out: hH3R Ki [nM] ± SEM. Here is the method: as §1, §2

T2 sequence (Q9Y5N1 whole entry): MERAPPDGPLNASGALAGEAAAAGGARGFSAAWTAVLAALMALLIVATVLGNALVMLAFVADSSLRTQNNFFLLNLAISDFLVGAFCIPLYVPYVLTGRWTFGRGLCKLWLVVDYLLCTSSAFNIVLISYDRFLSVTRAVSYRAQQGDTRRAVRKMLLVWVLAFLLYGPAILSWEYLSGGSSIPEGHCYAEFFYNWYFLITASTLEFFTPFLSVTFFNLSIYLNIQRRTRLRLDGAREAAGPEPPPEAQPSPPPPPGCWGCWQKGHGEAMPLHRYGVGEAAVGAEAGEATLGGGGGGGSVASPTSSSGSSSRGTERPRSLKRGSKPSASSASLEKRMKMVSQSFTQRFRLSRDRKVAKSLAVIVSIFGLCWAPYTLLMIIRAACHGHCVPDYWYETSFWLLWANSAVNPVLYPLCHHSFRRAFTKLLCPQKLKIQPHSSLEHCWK

Consider `Fc1ccc(OCCCN2CCCCC2)cc1.O=C(O)C(=O)O` [Compound 22, 1-(3-(4-Fluorophenoxy)propyl)piperidine hydrogen oxalate], for which the melting point is 132 to 136 °C. In addition, the inhibition at 1 µM in [1] worked out at 29%. Moreover, the Ki in data set [2] is > 80 nM and 93 nM.
For the molecule `CC1CCCCN1CCCOc1ccc(C(C)(C)C)cc1` (stereo not drawn) [Compound 10, 1-(3-(4-(tert-Butyl)phenoxy)propyl)-2-methylpiperidine hydrogen oxalate], the Ki in data set [3] is less than 100 nM.
With `CC(C)c1ccc(OCCCN2CCCCC2)cc1.O=C(O)C(=O)O` [Compound 19, 1-(3-(4-Isopropylphenoxy)propyl)piperidine hydrogen oxalate], the melting point lay in the range of 112 to 115 °C. In [1], this molecule registered an IC50 of 0.021 ± 0.003 µM. Also, the affinity in data set [2] corresponds to a Ki of 52 nM.
Take `Cn1c(=O)c2c(ncn2C)n(C)c1=O` [caffeine, reference compound]: in data set [4], the “Pe (×10^−6cm/s) ± SD” value is recorded as 15.1 ×10^−6cm/s.
With `Cc1ccc(OCCCN2CCCCC2)cc1.O=C(O)C(=O)O` [Compound 21, 1-(3-(p-Tolyloxy)propyl)piperidine hydrogen oxalate], the melting point was 160 to 162 °C. Also, in [1], 0.755 ± 0.106 µM corresponded to half-maximal inhibition (IC50). The molecule also had a Ki in data set [2] of 43 nM.
In turn, `CCc1ccc(OCCCN2CCCCC2)cc1.O=C(O)C(=O)O` [Compound 20, 1-(3-(4-Ethylphenoxy)propyl)piperidine hydrogen oxalate] came in with a melting point of 144 to 146 °C. The molecule also yielded an IC50 in [1] of 0.07 ± 0.002 µM. Moreover, the Ki in data set [2] is 62 nM and 61 nM.
Molecule `CC(=O)c1ccc(OCCCN2CCCCC2)cc1.O=C(O)C(=O)O` [Compound 18, 1-(4-(3-(Piperidin-1-yl)propoxy)phenyl)ethan-1-one hydrogen oxalate] displayed a melting point of 157 to 159 °C. For the same molecule, the inhibition at 1 µM in data set [1] amounted to 19%. In addition, in [2], affinity was put at a Ki of 15 nM.
Regarding `CCC(C)(C)c1ccc(OCCCN2CCCC2)cc1` [Compound 3], the IC50 in data set [5] is 0.0045 µM. For the same molecule, the Ki in [6] was 0.063 µM.
The molecule `Clc1ccc(OCCCN2CCCCC2)cc1.O=C(O)C(=O)O` [Compound 23, 1-(3-(4-chlorophenoxy)propyl)piperidine hydrogen oxalate] yielded a melting point of 158 to 160 °C. This molecule showed an IC50 in [1] of 1.06 ± 0.037 µM. The Ki in data set [2] was > 80 nM and 83 nM.
Turning to `O=C1/C(=C/c2ccc(OCCCN3CCCCC3)cc2)Cc2cc(OCc3ccc(Br)cc3)ccc21` [Compound 1], the Ki in data set [6] is 0.0065 µM.
On to `C[C@H](NCc1ccc(OCc2cccc(F)c2)cc1)C(N)=O` [Safinamide, reference compound], for which, in data set [7], the “effect of 30 min preincubation on inhibition (preincubated vs non-preincubated)” value was “did not show differences between the variants” and the “reversibility of MAO B inhibition” value is “reversible inhibition”. Besides, in data set [8], the “Affinity (free enzyme vs enzyme-substrate complex)” value was “Free enzyme > enzyme-substrate complex”; the “Mode of inhibition from kinetic values and LB plot” value is on record as “Mixed mode”; the “Lines on LB plot” value was “Lines intersect to the left of y-axis and above x-axis”; the “app. KM” value was “↑ curvilinearly with ↑ [I]”. In addition, in [8], the “app. Vmax” value is “↓ curvilinearly with ↑ [I]” and the “app. Vmax/app. KM” value was “↓ curvilinearly with ↑ [I]”.
With `CCC(C)(C)c1ccc(OCCCN2CCCCC2)cc1` [DL77], in data set [5], the IC50 is 0.019 µM. In addition, the Ki in data set [6] is 0.037 µM.
For `O=C(c1ccc(OCCCc2cnc[nH]2)cc1)C1CC1` [ciproxifan], the IC50 in [5] was 2 µM. Also, the Ki in data set [6] is 0.046 µM.
Molecule `CCCN(CCC)CCCOc1ccc(C(C)(C)C)cc1.O=C(O)C(=O)O` [Compound 9, 3-(4-(tert-Butyl)phenoxy)-N,N-dipropylpropan-1-amine hydrogen oxalate] showed a melting point of 139 to 142 °C. For the same molecule, the IC50 in [9] (24 h incubation, read-out: IC50 24 h) is 144 µM and 55 µg/mL. Moreover, the IC50 in data set [9] (72 h incubation, read-out: IC50 72 h) was 123 µM and 47 µg/mL. The viability at 24 h in data set [10] was more than 95%. Besides, in [7], the “effect of 30 min preincubation on inhibition (preincubated vs non-preincubated)” value was “did not show differences between the variants” and the “reversibility of MAO B inhibition” value is “reversible inhibition”. Moreover, the Ki in data set [11] is 323 ± 73 nM. For the same molecule, the midpoint of inhibition in data set [1], the IC50, lay at 0.002 µM. Besides, in data set [8], the “Affinity (free enzyme vs enzyme-substrate complex)” value is listed as “Free enzyme ≈ enzyme-substrate complex”; the “Mode of inhibition from kinetic values and LB plot” value was “noncompetitive inhibition”; the “Lines on LB plot” value is “Lines intersect to the left of y-axis directly on x-axis”; the “app. KM” value is “No effect ^a”. In [8], the “app. Vmax” value was “↓ curvilinearly with ↑ [I]” and the “app. Vmax/app. KM” value was “↓ curvilinearly with ↑ [I]”. Moreover, in data set [4], the “permeability in PAMPA, in words” value is on record as “not able to cross the artificial membrane” and the “Pe (×10^−6cm/s) ± SD” value is “^---- -- ^c”.
